Among the test systems are SF-539 CNS; K-562 leukemia; SNB-75 CNS; UACC-257 melanoma; ACHN renal; SK-OV-3 ovarian; M14 melanoma; OVCAR-3 ovarian; LOX IMVI melanoma.
Holding throughout (test): NCI-60 cell line screen, 48 h

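Compound exposure: 48 hours, 5 concentrations, 96-well plates. GI50 is the concentration that inhibits growth by half. At the TGI there is no net growth.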

As for `CC(C)(C)OC(=O)N1CC(COS(C)(=O)=O)c2ccc(O)cc21` (centres undefined), the TGI in the experiment with SF-539 CNS stood at 3.84 µM; in the experiment on K-562 leukemia it was 9.54 µM; in the experiment with SNB-75 CNS, 3.05 µM; with UACC-257 melanoma, 5.54 µM; with ACHN renal it was 3.12 µM; in the experiment with SK-OV-3 ovarian, 8.88 µM. The TGI came out at 3.14 µM with M14 melanoma and 7.25 µM in the experiment on OVCAR-3 ovarian.
For `COc1ccc2c(c1)CCC1C2CCC2(C)C1CC[C@@]2(O)CNC(=O)/C=C/c1ccc(O)c(O)c1` (some centres undefined), the GI50 is 2.08 µM with SF-539 CNS; 2.65 µM with SNB-75 CNS; 18.5 µM in the experiment on UACC-257 melanoma; 2.19 µM with ACHN renal; 14.8 µM in the experiment on SK-OV-3 ovarian; 1.58 µM in the experiment with LOX IMVI melanoma. Also, the GI50 in the experiment with M14 melanoma is 2.59 µM; with OVCAR-3 ovarian it was 2.56 µM. In addition, the TGI in the experiment on SF-539 CNS was 6.75 µM; in the experiment on SNB-75 CNS, 7.18 µM; in the experiment on UACC-257 melanoma, 35.7 µM; in the experiment on ACHN renal, 7.16 µM; with SK-OV-3 ovarian, more than 100 µM; in the experiment with LOX IMVI melanoma it was 5.57 µM. Also, the TGI in the experiment on M14 melanoma stood at 7.42 µM; in the experiment with OVCAR-3 ovarian it was 67.3 µM.
For `Cc1c2cccc-2c(N(C)C)cc2c1[nH]c1ccccc12`, the TGI with SF-539 CNS turned out to be 4.31 µM; with UACC-257 melanoma, 26.4 µM; in the experiment on ACHN renal it was 12.4 µM; with SK-OV-3 ovarian, 15.1 µM; in the experiment on LOX IMVI melanoma it was 15.3 µM; in the experiment on M14 melanoma, 18.9 µM. The compound further returned a TGI with OVCAR-3 ovarian of more than 100 µM.
With `OB1OCc2ccccc21`, the TGI in the experiment with SF-539 CNS was 64.4 µM; with K-562 leukemia it was more than 100 µM; with UACC-257 melanoma, more than 100 µM; in the experiment with SK-OV-3 ovarian, 47.1 µM; in the experiment on LOX IMVI melanoma, more than 100 µM; with M14 melanoma, more than 100 µM. In the experiment with OVCAR-3 ovarian, this compound displayed a TGI of more than 100 µM.
Turning to `COCN1C(=O)[C@@H]2C[C@@H](OC/C=C/CBr)CN2C(=O)c2ccccc21`, the TGI with SF-539 CNS is 40.8 µM; in the experiment on SNB-75 CNS, 27.9 µM; in the experiment on UACC-257 melanoma, 37.6 µM; in the experiment on ACHN renal, 54.8 µM; in the experiment on SK-OV-3 ovarian, 88.5 µM; in the experiment with LOX IMVI melanoma, 13.1 µM. This compound also returned a TGI in the experiment on M14 melanoma of 42.9 µM.
In the case of `O=C(C(Cl)=C(Nc1ccccc1)Nc1ccccc1)C(Cl)Cl`, the TGI in the experiment with SF-539 CNS was more than 100 µM; with K-562 leukemia, 86.4 µM; in the experiment with UACC-257 melanoma, more than 100 µM; in the experiment with ACHN renal it was more than 100 µM; in the experiment on SK-OV-3 ovarian, 94.6 µM; in the experiment on LOX IMVI melanoma, 30.3 µM. In addition, the TGI in the experiment on M14 melanoma turned out to be 43.8 µM; in the experiment with OVCAR-3 ovarian, 79.3 µM.
With `COC(=O)[C@H]1ON2O[C@H](OC3CCCC[C@@H]3c3ccccc3)C[C@@H]3CC[C@H]1[C@@]32C` (some centres undefined), the TGI in the experiment on K-562 leukemia, with SNB-75 CNS, in the experiment on UACC-257 melanoma, in the experiment on ACHN renal, in the experiment on SK-OV-3 ovarian and in the experiment with LOX IMVI melanoma was more than 100 µM throughout. The same compound displayed a TGI in the experiment with M14 melanoma of more than 100 µM.
For the compound `CN(C)CCCN1c2ccc3ccccc3c2Sc2cccc(Cl)c21`, the TGI came out at 20.7 µM in the experiment on SF-539 CNS; 3.77 µM with K-562 leukemia; 12 µM with SNB-75 CNS; 3.1 µM with UACC-257 melanoma; 12.6 µM in the experiment with ACHN renal; 26.4 µM with SK-OV-3 ovarian. Moreover, the TGI in the experiment with M14 melanoma turned out to be 3.58 µM; in the experiment on OVCAR-3 ovarian, 10.6 µM.
For `COC[C@@H](N=Cc1ccc(OC)cc1)C(C)C`, the TGI in the experiment on K-562 leukemia, in the experiment with SNB-75 CNS, in the experiment on UACC-257 melanoma, in the experiment on ACHN renal, in the experiment with SK-OV-3 ovarian and in the experiment with LOX IMVI melanoma was more than 100 µM in each case. Besides, the TGI with M14 melanoma was more than 100 µM.
Turning to `CC1=CC(=O)C[C@]2(C)[C@@H](O)CC(C(C)CO)C[C@@H]12` (some centres undefined), the TGI in the experiment on SF-539 CNS, in the experiment with SNB-75 CNS, with UACC-257 melanoma, with ACHN renal, in the experiment on SK-OV-3 ovarian and in the experiment on LOX IMVI melanoma was more than 100 µM in each case. In addition, the TGI in the experiment on M14 melanoma and in the experiment on OVCAR-3 ovarian was more than 100 µM throughout.
As for `N#C/C(=C/NC(=S)Nc1ccc(S(N)(=O)=O)cc1)C(N)=O`, the TGI in the experiment on SF-539 CNS, with SNB-75 CNS, in the experiment with UACC-257 melanoma, in the experiment with ACHN renal, in the experiment with SK-OV-3 ovarian and in the experiment on M14 melanoma was more than 100 µM in each case. In the experiment with OVCAR-3 ovarian, this compound gave a TGI of more than 100 µM.
Take `Clc1ccc(CCn2ccc3ccccc32)c(Cl)c1`: the TGI in the experiment on SF-539 CNS, with K-562 leukemia, in the experiment on SNB-75 CNS, in the experiment with UACC-257 melanoma, with ACHN renal and in the experiment with SK-OV-3 ovarian was more than 100 µM throughout. Besides, the TGI with M14 melanoma and in the experiment with OVCAR-3 ovarian was more than 100 µM in each case.
Take `C[N+]12C=CC=C1C(N1CCCC1)c1sc(-c3ccc(Cl)cc3)cc12` (centres undefined): the TGI is 25.7 µM in the experiment with SNB-75 CNS; 28.9 µM in the experiment on UACC-257 melanoma; more than 100 µM in the experiment on ACHN renal; 32.8 µM in the experiment with SK-OV-3 ovarian; 29.5 µM in the experiment with LOX IMVI melanoma; 30.9 µM in the experiment with M14 melanoma. Besides, the TGI with OVCAR-3 ovarian worked out at 26.5 µM.
`O=S(=O)(CC#CCS(=O)(=O)c1ccccc1)c1ccccc1`: the TGI came out at 6.86 µM in the experiment on SF-539 CNS; 5.55 µM with SNB-75 CNS; 14.7 µM with UACC-257 melanoma; 3.25 µM with ACHN renal; 27.5 µM in the experiment on SK-OV-3 ovarian; 3.32 µM in the experiment with LOX IMVI melanoma. Also, the figures for the TGI in the experiment on M14 melanoma and in the experiment on OVCAR-3 ovarian were 4.36 µM and 2.91 µM, respectively.
`Fc1ccccc1N=c1oc2ccc(Br)cc2cc1-c1nc2ccccc2[nH]1`: the TGI was 4.58 µM with SF-539 CNS; more than 100 µM in the experiment with K-562 leukemia; 4.74 µM with SNB-75 CNS; more than 47.5 µM in the experiment with UACC-257 melanoma; 29.8 µM in the experiment with ACHN renal; 32.9 µM with SK-OV-3 ovarian. The figures for the TGI with LOX IMVI melanoma and with M14 melanoma were more than 31.2 µM and 35.8 µM, respectively.
As for `COc1cccc(C(=O)C(O)c2cccc(OC)c2OC)c1OC` (centres undefined), the TGI with SF-539 CNS, in the experiment with SNB-75 CNS, in the experiment on UACC-257 melanoma, with ACHN renal, with SK-OV-3 ovarian and with LOX IMVI melanoma was more than 100 µM throughout. Further, the TGI in the experiment with M14 melanoma and with OVCAR-3 ovarian was more than 100 µM in each case.
